Measurements as given in ChEMBL document CHEMBL5576128, “Discovery of Potent Isoquinolinequinone N-Oxides to Overcome Cancer Multidrug Resistance” (J Med Chem, 2024).
Activity calls are given as the source filed them. The rule behind the calls is not given here.

What was measured:
NCI-H460 [1] = assay: Upregulation of p-histone H2A.X expression in human NCI-H460 cells at high concentration incubated for 48 hrs by Western blotting analysis; format: functional, cell-based
NCI-H460 [2] = assay: Induction of DNA damage in human NCI-H460 cells at 0.7 uM incubated for 48 hrs by Western blotting analysis; format: functional, cell-based
DLD-1 [3] = assay: Effect on human DLD-1 cells […] assessed as change in diameter at 0.35 to 0.7 uM incubated for 48 hrs; format: functional, cell-based; details: dose 0.35-0.7 µM
NCI-H460 [4] = assay: Effect on human NCI-H460 cells […] assessed as change in circularity at 0.35 to 0.7 uM incubated for 48 hrs; format: functional, cell-based; details: dose 0.35-0.7 µM
NCI-H460 [5] = assay: Inhibition of cell growth in human NCI-H460 cells incubated for 48 hrs by trypan blue exclusion assay; format: functional, cell-based
NCI-H460 [6] = assay: Effect on PARP-1 expression in human NCI-H460 cells at 0.35 to 0.7 uM incubated for 48 hrs by Western blotting analysis; format: functional, cell-based; details: dose 0.35-0.7 µM
NCI-H460 [7] = assay: Inhibition of human NCI-H460 cells spheroid viability by CellTiter-Glo 3D viability assay; format: functional, cell-based
NCI-H460 [8] = assay: Inhibition of cell proliferation in human NCI-H460 cells at 0.35 to 0.7 uM incubated for 48 hrs by BrdU incorporation assay; format: functional, cell-based; details: dose 0.35-0.7 µM
NCI-H460 [9] = assay: Upregulation of cyclin D1 expression in human NCI-H460 cells at 0.35 to 0.7 uM incubated for 48 hrs by Western blotting analysis; format: functional, cell-based; details: dose 0.35-0.7 µM
NCI-H460 [10] = assay: Downregulation of procaspase-3 expression in human NCI-H460 cells at 0.35 to 0.7 uM incubated for 48 hrs by Western blotting analysis; format: functional, cell-based; details: dose 0.35-0.7 µM
[11] = target: ATP-dependent translocase ABCB1 (Homo sapiens, UniProt P08183); assay: Inhibition of P-gp mediated drug efflux in human NCI-H460 cells assessed as accumulation of rhodamine-123 accumulation at 10 to 20 uM incubated for 1 hr by flow cytometry analysis; format: cell-based; details: nci-h460, 1 h, dose 10-20 µM
ATP-dependent translocase ABCB1, sequence (P08183 whole entry): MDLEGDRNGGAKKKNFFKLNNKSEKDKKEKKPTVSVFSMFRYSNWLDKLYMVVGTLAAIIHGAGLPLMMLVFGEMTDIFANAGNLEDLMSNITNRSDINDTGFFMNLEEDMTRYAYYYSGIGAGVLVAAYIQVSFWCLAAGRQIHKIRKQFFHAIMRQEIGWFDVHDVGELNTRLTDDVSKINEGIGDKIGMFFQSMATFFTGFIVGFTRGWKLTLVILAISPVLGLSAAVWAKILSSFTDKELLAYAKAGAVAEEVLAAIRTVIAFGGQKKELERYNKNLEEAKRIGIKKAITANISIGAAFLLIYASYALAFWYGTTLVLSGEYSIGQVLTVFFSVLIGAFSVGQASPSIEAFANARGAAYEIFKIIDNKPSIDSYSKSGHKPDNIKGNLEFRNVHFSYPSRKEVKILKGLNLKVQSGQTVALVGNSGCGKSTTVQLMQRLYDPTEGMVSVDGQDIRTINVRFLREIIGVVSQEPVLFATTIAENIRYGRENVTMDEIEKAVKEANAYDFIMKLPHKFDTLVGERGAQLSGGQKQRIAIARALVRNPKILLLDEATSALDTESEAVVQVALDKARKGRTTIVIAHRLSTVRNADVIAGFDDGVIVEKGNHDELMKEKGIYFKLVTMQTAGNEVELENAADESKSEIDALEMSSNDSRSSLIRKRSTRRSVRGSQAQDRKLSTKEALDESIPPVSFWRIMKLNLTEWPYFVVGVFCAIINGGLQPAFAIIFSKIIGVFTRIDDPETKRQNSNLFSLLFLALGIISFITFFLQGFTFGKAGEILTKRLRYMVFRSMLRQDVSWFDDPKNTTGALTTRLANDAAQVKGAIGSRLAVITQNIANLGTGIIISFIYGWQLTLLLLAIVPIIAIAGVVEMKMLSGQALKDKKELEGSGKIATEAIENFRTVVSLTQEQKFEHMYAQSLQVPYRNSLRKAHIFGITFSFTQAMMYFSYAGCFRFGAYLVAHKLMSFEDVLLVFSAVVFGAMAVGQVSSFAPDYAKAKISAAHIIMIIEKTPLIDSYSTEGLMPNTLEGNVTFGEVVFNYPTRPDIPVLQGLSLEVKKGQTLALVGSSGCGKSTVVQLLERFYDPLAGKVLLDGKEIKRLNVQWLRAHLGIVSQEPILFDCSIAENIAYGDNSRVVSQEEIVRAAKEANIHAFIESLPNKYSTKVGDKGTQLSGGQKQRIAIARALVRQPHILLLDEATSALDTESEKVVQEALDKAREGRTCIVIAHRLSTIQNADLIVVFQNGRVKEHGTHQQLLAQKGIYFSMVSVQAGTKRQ

MCF-12A = assay: Cytotoxicity against human MCF-12A cells at 1 to 5 uM incubated for 48 hrs by SRB method; format: toxicity, cell-based; details: dose 1-5 µM
NCI-H460 [12] = assay: Induction of apoptosis in human NCI-H460 cells at 0.35 to 0.7 uM incubated for 48 hrs by Annexin-V FITC/propidium iodide staining based flow cytometry analysis; format: functional, cell-based; details: dose 0.35-0.7 µM
NCI-H460 [13] = assay: Induction of cell cycle arrest in human NCI-H460 cells assessed as decrease in S phase cells at 0.35 to 0.7 uM incubated for 48 hrs by propidium iodide staining based flow cytometry analysis; format: functional; details: dose 0.35-0.7 µM
NCI-H460 [14] = assay: Upregulation of p21 expression in human NCI-H460 cells at 0.7 uM incubated for 48 hrs by Western blotting analysis; format: functional, cell-based
[15] = test system: Doxorubicin-resistant NCI-H460/R; assay: Effect on human Doxorubicin-resistant NCI-H460/R cells […] assessed as change in diameter at 0.35 to 0.7 uM incubated for 48 hrs; format: functional, cell-based; details: dose 0.35-0.7 µM
NCI-H460 [16] = assay: Effect on human NCI-H460 cells […] assessed as change in compactness at 0.35 to 0.7 uM incubated for 48 hrs; format: functional, cell-based; details: dose 0.35-0.7 µM
DLD-1 [17] = assay: Effect on human DLD-1 cells […] assessed as change in compactness at 0.35 to 0.7 uM incubated for 48 hrs; format: functional, cell-based; details: dose 0.35-0.7 µM
NCI-H460 [18] = assay: Upregulation of TP53BP1 expression in human NCI-H460 cells at high concentration incubated for 48 hrs by Western blotting analysis; format: functional, cell-based
[19] = test system: Paclitaxel-resistant DLD1-TxR cells; assay: Effect on human Paclitaxel-resistant DLD1-TxR cells […] assessed as change in circularity at 0.35 to 0.7 uM incubated for 48 hrs; format: functional, cell-based; details: dose 0.35-0.7 µM
[20] = test system: Paclitaxel-resistant DLD1-TxR cells; assay: Inhibition of human Paclitaxel-resistant DLD1-TxR cells spheroid viability by CellTiter-Glo 3D viability assay; format: functional, cell-based
NCI-H460 [21] = assay: Induction of ROS accumulation in human NCI-H460 cells at 0.7 to 5 uM incubated for 6 hrs by CM-H2DCFDA staining based flow cytometry analysis; format: functional, cell-based; details: dose 0.7-5 µM
[22] = test system: Doxorubicin-resistant NCI-H460/R; assay: Effect on human Doxorubicin-resistant NCI-H460/R cells […] assessed as change in circularity at 0.35 to 0.7 uM incubated for 48 hrs; format: functional, cell-based; details: dose 0.35-0.7 µM
NCI-H460 [23] = assay: Induction of cell cycle arrest in human NCI-H460 cells assessed as increase in sub-G1 phase cells at 0.35 to 0.7 uM incubated for 48 hrs by propidium iodide staining based flow cytometry analysis; format: functional; details: dose 0.35-0.7 µM
DLD-1 [24] = assay: Effect on human DLD-1 cells […] assessed as change in circularity at 0.35 to 0.7 uM incubated for 48 hrs; format: functional, cell-based; details: dose 0.35-0.7 µM
[25] = test system: Doxorubicin-resistant NCI-H460/R; assay: Inhibition of human Doxorubicin-resistant NCI-H460/R cells spheroid viability by CellTiter-Glo 3D viability assay; format: functional, cell-based
DLD-1 [26] = assay: Inhibition of human DLD-1 cells spheroid viability by CellTiter-Glo 3D viability assay; format: functional, cell-based
NCI-H460 [27] = assay: Induction of cell cycle arrest in human NCI-H460 cells assessed as increase in G1 phase cells at 0.35 to 0.7 uM incubated for 48 hrs by propidium iodide staining based flow cytometry analysis; format: functional; details: dose 0.35-0.7 µM
NCI-H460 [28] = assay: Effect on LC3-I expression in human NCI-H460 cells at 0.35 to 0.7 uM incubated for 48 hrs by Western blotting analysis; format: functional, cell-based; details: dose 0.35-0.7 µM
NCI-H460 [29] = assay: Upregulation of p53 expression in human NCI-H460 cells at 0.35 to 0.7 uM incubated for 48 hrs by Western blotting analysis; format: functional, cell-based; details: dose 0.35-0.7 µM
[30] = test system: Paclitaxel-resistant DLD1-TxR cells; assay: Effect on human Paclitaxel-resistant DLD1-TxR cells […] assessed as change in diameter at 0.35 to 0.7 uM incubated for 48 hrs; format: functional, cell-based; details: dose 0.35-0.7 µM
NCI-H460 [31] = assay: Effect on p62 expression in human NCI-H460 cells at 0.35 to 0.7 uM incubated for 48 hrs by Western blotting analysis; format: functional, cell-based; details: dose 0.35-0.7 µM
MRC5 = assay: Cytotoxicity against human MRC5 cells at less than 0.5 uM incubated for 48 hrs by SRB method; format: toxicity, cell-based; details: mrc5, 48 h
[32] = test system: Doxorubicin-resistant NCI-H460/R; assay: Effect on human Doxorubicin-resistant NCI-H460/R cells […] assessed as change in compactness at 0.35 to 0.7 uM incubated for 48 hrs; format: functional, cell-based; details: dose 0.35-0.7 µM
[33] = test system: Paclitaxel-resistant DLD1-TxR cells; assay: Effect on human Paclitaxel-resistant DLD1-TxR cells […] assessed as change in compactness at 0.35 to 0.7 uM incubated for 48 hrs; format: functional, cell-based; details: dose 0.35-0.7 µM
NCI-H460 [34] = assay: Effect on LC3-II expression in human NCI-H460 cells at 0.35 to 0.7 uM incubated for 48 hrs by Western blotting analysis; format: functional, cell-based; details: dose 0.35-0.7 µM
NCI-H460 [35] = assay: Effect on human NCI-H460 cells […] assessed as change in diameter at 0.35 to 0.7 uM incubated for 48 hrs; format: functional, cell-based; details: dose 0.35-0.7 µM
NCI/ADR-RES = assay: Potency index, ratio of doxorubicin GI50 to test compound GI50 for human NCI/ADR-RES cells; format: functional
NCI-H460 [36] = assay: Inhibition of human NCI-H460 cells […] at 50 nM incubated for 48 hrs; format: functional, cell-based
NCI-H460 [37] = assay: Inhibition of cell proliferation in human NCI-H460 cells at 50 nM incubated for 48 hrs by BrdU incorporation assay; format: functional, cell-based
[38] = test system: Doxorubicin-resistant NCI-H460/R; assay: Inhibition of human Doxorubicin-resistant NCI-H460/R cells […] assessed as reduction in viability at 2 uM incubated for 48 hrs; format: functional, cell-based

COC(=O)c1c2c(c[n+]([O-])c1C)C(=O)C=C(NCc1ccccc1)C2=O
Activity (NCI-H460 [1]): Active | Activity (NCI-H460 [2]): inactive | Activity (DLD-1 [3]): inactive | Activity (NCI-H460 [4]): inactive | inhibition (NCI-H460 [5]): Active | Activity (NCI-H460 [6]): inactive | inhibition (NCI-H460 [7]): Active | inhibition (NCI-H460 [8]): Active | Activity (NCI-H460 [9]): Active | Activity (NCI-H460 [10]): Active | inhibition (INH) [11]: Active | Activity (MCF-12A): Non-Toxic | Activity (NCI-H460 [12]): inactive | Activity (NCI-H460 [13]): Active | Activity (NCI-H460 [14]): Active | Activity [15]: inactive | Activity (NCI-H460 [16]): inactive | Activity (DLD-1 [17]): inactive | Activity (NCI-H460 [18]): Active | Activity [19]: inactive | inhibition [20]: Active | Activity (NCI-H460 [21]): Active | Activity [22]: inactive | Activity (NCI-H460 [23]): Active | Activity (DLD-1 [24]): inactive | inhibition [25]: Active | inhibition (DLD-1 [26]): Active | Activity (NCI-H460 [27]): Active | Activity (NCI-H460 [28]): inactive | Activity (NCI-H460 [29]): inactive | Activity [30]: inactive | Activity (NCI-H460 [31]): inactive | Activity (MRC5): Non-Toxic | Activity [32]: inactive | Activity [33]: inactive | Activity (NCI-H460 [34]): inactive | Activity (NCI-H460 [35]): inactive

COC(=O)c1c2c(c(C)[n+]([O-])c1C)C(=O)C=C(NCc1ccccc1)C2=O
RatioGI50 (NCI/ADR-RES): 40

COc1cccc2c1C(=O)c1c(O)c3c(c(O)c1C2=O)C[C@@](O)(C(=O)CO)C[C@@H]3O[C@H]1C[C@H](N)[C@H](O)[C@H](C)O1
inhibition (NCI-H460 [36]): inactive | inhibition (NCI-H460 [37]): Active

COc1cc([C@@H]2c3cc4c(cc3[C@@H](O[C@@H]3O[C@@H]5CO[C@@H](C)O[C@H]5[C@H](O)[C@H]3O)[C@H]3COC(=O)[C@H]23)OCO4)cc(OC)c1O
Activity [38]: inactive
